From ChEMBL document CHEMBL1201862, “PubChem BioAssay data set” (2004)
Activity calls are given as the source filed them.

Key:
[1] = Trypanosoma cruzi growth suppression in host cells – NIH3T3 host cells, beta-gal luminescence, confirmation (AID 2044); assay type: functional, cell-based;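 further: intracellular parasites grown in NIH/3T3 mouse fibroblasts as host cells; luminescent beta-galactosidase reporter signal from transgenic T. cruzi replicating inside host cells; inhibitors lower the luminescence signal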
[2] = target: Induced myeloid leukemia cell differentiation protein Mcl-1 (Homo sapiens, UniProt Q07820); assay type: functional
[3] = tested on: Vero; experiment: viability of Vero cells under compound – cytotoxicity control for flavivirus capping enzyme inhibitors (AID 588742); assay type: functional; settings: Chlorocebus sabaeus
[4] = target: Tyrosyl-DNA phosphodiesterase 2 (Homo sapiens, UniProt O95551); experiment: potency against TDP2 phosphodiesterase activity – biochemical, epi absorbance, IC50, dose response (AID 743297)
[5] = tested on: Streptococcus; experiment: GAS UMAA2166 growth inhibition – luminescence, BacTiterGlo, counter-screen for streptokinase expression inhibitor project, dose response (AID 1915); assay type: functional, organism-based;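 further: potency for reduction of bacterial viability or growth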
[6] = target: Eukaryotic translation initiation factor 4E (Mus musculus, UniProt P63073); experiment: blockers of eIF4G binding by eIF4E – biochemical, TR-FRET, dose response (AID 855); assay type: functional;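 further: potency for disrupting eIF4E binding to eIF4GI seen as loss of FRET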
[7] = target: T1, Hexokinase-1 (Homo sapiens, UniProt P19367); experiment: SAR analysis of small molecule inhibitors of hexokinase domain containing I (HKDC1) in the hexokinase 1 selectivity assay. [Related pubchem assays (depositor defined):AID493160, AID493190]; assay type: functional
T1 sequence (P19367 whole entry): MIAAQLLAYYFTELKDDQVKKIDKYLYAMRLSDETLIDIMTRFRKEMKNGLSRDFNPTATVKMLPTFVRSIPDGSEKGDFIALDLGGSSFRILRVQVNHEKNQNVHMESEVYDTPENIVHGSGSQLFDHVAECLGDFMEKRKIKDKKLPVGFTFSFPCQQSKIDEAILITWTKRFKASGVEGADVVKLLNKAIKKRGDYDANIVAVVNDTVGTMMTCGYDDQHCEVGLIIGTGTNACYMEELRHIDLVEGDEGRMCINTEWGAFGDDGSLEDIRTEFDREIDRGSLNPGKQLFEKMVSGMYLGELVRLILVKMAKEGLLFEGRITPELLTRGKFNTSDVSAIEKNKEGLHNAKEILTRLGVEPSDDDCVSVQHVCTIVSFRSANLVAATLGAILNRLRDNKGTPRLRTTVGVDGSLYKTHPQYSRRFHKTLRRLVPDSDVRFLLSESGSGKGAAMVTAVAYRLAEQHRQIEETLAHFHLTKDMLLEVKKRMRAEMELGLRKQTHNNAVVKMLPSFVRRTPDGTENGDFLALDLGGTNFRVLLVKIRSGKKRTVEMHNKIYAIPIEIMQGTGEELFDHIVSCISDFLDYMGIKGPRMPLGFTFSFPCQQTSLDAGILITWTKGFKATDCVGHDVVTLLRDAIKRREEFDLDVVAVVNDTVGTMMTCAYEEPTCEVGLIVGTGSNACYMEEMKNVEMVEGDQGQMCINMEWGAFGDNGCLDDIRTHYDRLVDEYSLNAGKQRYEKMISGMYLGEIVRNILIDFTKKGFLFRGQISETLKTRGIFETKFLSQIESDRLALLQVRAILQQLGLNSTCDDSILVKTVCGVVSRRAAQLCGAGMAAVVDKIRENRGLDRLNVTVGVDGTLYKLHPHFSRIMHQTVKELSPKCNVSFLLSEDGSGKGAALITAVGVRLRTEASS

[8] = target: T2, Hexokinase HKDC1 (Homo sapiens, UniProt Q2TB90); experiment: SAR analysis of small molecule inhibitors of hexokinase domain containing I (HKDC1). [Related pubchem assays (depositor defined):AID493160, AID493190]; assay type: functional
T2 sequence (Q2TB90 whole entry): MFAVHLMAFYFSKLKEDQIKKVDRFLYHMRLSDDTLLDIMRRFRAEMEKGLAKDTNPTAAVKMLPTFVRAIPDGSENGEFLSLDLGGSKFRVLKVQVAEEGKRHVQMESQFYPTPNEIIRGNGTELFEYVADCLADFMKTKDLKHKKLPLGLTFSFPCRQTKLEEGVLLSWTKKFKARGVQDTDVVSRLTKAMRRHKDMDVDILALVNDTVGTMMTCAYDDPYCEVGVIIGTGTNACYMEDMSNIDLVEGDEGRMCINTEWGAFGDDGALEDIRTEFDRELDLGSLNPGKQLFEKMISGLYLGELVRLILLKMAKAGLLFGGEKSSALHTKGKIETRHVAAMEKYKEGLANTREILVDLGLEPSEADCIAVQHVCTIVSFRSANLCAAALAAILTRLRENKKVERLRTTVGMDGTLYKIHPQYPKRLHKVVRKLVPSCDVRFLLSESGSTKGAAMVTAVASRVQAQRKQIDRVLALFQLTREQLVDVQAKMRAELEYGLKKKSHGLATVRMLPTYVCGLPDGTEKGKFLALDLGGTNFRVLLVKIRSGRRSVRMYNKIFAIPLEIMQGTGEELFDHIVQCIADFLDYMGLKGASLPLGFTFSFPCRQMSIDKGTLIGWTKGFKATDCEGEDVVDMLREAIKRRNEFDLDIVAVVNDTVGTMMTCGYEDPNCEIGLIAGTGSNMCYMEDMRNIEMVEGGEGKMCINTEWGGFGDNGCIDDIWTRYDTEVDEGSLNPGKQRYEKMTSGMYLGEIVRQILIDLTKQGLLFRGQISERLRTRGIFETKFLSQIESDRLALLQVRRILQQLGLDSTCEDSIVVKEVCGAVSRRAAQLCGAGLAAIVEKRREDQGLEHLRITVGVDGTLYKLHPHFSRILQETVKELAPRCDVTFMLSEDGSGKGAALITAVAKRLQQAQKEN

[9] = target: T3, Caspase-6 (Homo sapiens, UniProt P55212); experiment: inhibition of CASP6 peptide cleavage – biochemical, VEID-R110 fluorescence, cherry-pick, dose response (AID 720632)
T3 sequence (P55212 whole entry): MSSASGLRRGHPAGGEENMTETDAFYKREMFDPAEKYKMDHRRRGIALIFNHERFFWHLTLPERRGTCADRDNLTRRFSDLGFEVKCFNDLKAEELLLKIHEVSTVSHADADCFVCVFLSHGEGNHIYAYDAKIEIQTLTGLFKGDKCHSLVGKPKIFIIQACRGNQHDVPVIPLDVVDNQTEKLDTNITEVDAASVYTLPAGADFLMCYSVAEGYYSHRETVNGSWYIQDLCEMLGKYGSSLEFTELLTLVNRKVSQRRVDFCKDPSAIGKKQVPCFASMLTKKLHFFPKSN

[10] = target: Heat shock protein HSP 90-alpha (Homo sapiens, UniProt P07900); experiment: Luminescence-based dose response biochemical high throughput screening assay for inhibitors of the Heat Shock Protein 90 (HSP90). [Related pubchem assays: 1831 (Summary AID.), 1846 (Confirmation screen.), 1789 (Primary screen.)]
[11] = target: Beta-galactosidase (Escherichia coli, UniProt Q8VNN2); experiment: detection-enzyme interference by beta-gal modulators – biochemical, E. coli enzyme, set 3, artefact control for CCR6 antagonist project, dose response (AID 504712); assay type: functional
[12] = tested on: INS1; experiment: INS-1E survival protection against cytokine death – cell-based, luminescence, retest, dose response (AID 449756); assay type: functional; settings: Rattus norvegicus;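 further: cell death triggered by IL-1 beta plus TNF-alpha plus IFN-gamma mixture; protective hits raise ATP signal compared with cytokine alone wells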

Tyrosyl-DNA phosphodiesterase 2, sequence (O95551 whole entry): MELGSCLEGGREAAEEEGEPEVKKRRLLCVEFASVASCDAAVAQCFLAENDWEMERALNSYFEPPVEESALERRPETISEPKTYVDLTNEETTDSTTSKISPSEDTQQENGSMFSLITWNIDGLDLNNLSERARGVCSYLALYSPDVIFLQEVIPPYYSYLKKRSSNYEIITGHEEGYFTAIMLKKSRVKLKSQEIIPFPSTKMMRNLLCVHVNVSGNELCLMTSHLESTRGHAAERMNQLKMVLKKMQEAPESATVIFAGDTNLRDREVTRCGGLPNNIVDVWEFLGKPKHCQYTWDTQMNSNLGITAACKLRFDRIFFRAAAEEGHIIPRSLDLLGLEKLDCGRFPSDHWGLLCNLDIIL
Beta-galactosidase, sequence (Q8VNN2 whole entry): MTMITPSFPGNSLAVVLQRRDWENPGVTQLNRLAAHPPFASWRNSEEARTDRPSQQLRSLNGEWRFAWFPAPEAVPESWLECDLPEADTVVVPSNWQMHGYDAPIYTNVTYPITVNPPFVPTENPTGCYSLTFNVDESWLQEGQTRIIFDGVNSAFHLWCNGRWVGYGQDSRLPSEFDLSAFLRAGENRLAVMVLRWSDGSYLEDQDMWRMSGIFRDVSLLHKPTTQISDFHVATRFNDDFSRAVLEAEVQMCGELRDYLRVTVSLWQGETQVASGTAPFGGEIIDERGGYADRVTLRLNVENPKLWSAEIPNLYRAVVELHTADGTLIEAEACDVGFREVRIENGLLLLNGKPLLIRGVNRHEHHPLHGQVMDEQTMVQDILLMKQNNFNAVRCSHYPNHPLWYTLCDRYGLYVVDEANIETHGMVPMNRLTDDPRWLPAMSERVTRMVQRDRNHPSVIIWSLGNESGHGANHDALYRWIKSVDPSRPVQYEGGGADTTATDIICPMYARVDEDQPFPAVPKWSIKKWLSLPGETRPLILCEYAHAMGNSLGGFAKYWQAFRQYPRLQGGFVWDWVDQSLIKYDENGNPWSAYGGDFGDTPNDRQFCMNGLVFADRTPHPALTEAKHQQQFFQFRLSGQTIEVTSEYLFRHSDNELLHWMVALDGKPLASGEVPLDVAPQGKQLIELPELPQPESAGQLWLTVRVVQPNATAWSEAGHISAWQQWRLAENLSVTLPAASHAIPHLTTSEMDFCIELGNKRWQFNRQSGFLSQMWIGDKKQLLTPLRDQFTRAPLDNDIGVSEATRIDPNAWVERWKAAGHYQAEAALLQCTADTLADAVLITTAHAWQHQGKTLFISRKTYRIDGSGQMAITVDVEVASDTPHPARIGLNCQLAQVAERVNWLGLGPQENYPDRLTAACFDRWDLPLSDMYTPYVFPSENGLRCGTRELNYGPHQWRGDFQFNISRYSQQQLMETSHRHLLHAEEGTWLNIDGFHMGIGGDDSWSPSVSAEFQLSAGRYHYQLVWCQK
Eukaryotic translation initiation factor 4E, sequence (P63073 whole entry, the tested form may be a part): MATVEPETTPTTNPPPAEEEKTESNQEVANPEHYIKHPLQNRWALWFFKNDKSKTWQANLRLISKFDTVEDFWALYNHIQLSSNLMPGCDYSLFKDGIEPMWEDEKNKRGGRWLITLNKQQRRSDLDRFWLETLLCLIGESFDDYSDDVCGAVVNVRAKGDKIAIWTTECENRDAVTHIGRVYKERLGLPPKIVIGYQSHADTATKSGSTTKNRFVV
Induced myeloid leukemia cell differentiation protein Mcl-1, sequence (Q07820 whole entry): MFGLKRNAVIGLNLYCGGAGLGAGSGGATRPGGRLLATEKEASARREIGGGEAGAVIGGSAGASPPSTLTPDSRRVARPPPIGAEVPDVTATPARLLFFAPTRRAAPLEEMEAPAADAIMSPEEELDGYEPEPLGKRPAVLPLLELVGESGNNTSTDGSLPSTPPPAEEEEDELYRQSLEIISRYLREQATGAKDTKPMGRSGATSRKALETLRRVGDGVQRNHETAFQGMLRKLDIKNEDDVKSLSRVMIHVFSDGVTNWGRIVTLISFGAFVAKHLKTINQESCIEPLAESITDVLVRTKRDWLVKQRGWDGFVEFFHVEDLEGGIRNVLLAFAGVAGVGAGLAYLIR

**Q.** Which results are given for `NC(=O)C1CCN(C2=C(Cl)C(=O)c3ccccc3C2=O)CC1`?
**A.** EC50 [1]: 2.18 µM (active); IC50 [2]: > 54 µM (not active); CC50 [3]: 22.3 µM (active); IC50 [4]: 13.6 µM (inactive)

**Q.** Which EC50 [5] does the source give for `O=C(O)c1ccc(N/N=C/c2ccc(OC(=O)c3ccccc3Cl)cc2)cc1` here?
**A.** 131 µM (active)

**Q.** What does the source list for `O=c1c2ccccc2nc(/C=C/c2cccnc2)n1Cc1ccccc1`?
**A.** IC50 [6]: 5.77 µM (active); IC50 [7]: > 80 µM (inactive); IC50 [8]: > 80 µM (inactive); AC50 [9]: 11.8 µM (active)

**Q.** With `COC(=O)c1ccccc1NC1=C/C(=N\S(=O)(=O)c2ccc(C(=O)O)cc2)c2ccccc2C1=O` as the compound, how does the IC50 [10] read?
**A.** 1.26 µM (active)

**Q.** And the IC50 [11]?
**A.** > 66.6 µM (inactive)

**Q.** And the AC50 [12]?
**A.** 3.34 µM (active)
